Measurements as given in patent EP0102319B1, “Prophylactic and therapeutic use of muramyl peptides and their analogues against viral infections” (CIBA-GEIGY AG, priority 1982, dated 1984).

Key:
Influenza A/Texas/1/77 = test: Lethal intranasal virus infection of mice, single dose of active substance, survival; assay type: in vivo, Mäuse
Method: (§1) Gruppen von 30, 40 oder 50 weiblichen MF-2f SPF-Mäusen mit einem Körpergewicht von 14-16 g bzw. 12-14 g bei den Versuchen mit Herpes simplex 1 Viren werden unter leichter Narkose mit einem Gemisch aus gleichen Teilen Aether, Äthanol und Chloroform mit letalen Dosen (ungefähr eine LD80-90; Anzahl der plaque forming units [PFU] siehe Tabelle 1) der untengenannten Viren-Stämme in Form von je 0,05 ml einer Suspension der Viren intranasal infiziert.
(§2) 10 oder 20 von diesen Mäusen werden zum unten angegebenen Zeitpunkt [Tage] bezogen auf den Tag der Infektion einmal (Einzeldosis) die in Tabelle 1 genannten Mengen der Wirksubstanz N-Acetyl- muramyl-L-alanyl-D-isoglutaminyl-L-alanin-2-(1.2-dipalmitoyl-sn-glycero-3-hydroxyphosphoryioxy)-äthylamid-natriumsalz (Verbindung I) in 0,05 bzw. 0,1 ml Phosphat-gepufferter-Salzlösung (PBS) bzw. in 0,2 ml einer 0,05 Gew.-%igen Lösung von Natriumcarboxymethylcellulose in doppelt destilliertem Wasser im Falle von intranasaler, intravenöser bzw. oraler Applikation auf die in Tabelle 1 genannte Art appliziert.
(§3) Die restlichen der obengenannten Mäuse, d. h. 20 oder 30, dienen zur Kontrolle, d. h. sie bleiben entweder unbehandelt oder erhalten ein Placebo.
(§4) Die intranasale Applikation von Verbindung I wird unter leichter Narkose mit einem Gemisch aus gleichen Teilen Diäthyläther, Aethanol und Chloroform durchgeführt.

[1] = test system: Herpesvirus hominis 1/TUP; test: Lethal intranasal virus infection of mice, single dose of active substance, protection; assay type: in vivo, Mäuse; details: 10 mg/kg, day -7, intranasal infection (Figur 3)
Method: as §1, §2, §3, §4

[2] = intranasal, 1 mg/kg, single dose on day '-' (number not given) before infection
[3] = oral, 10 mg, single dose on day +7 after infection

SMILES	Mäuse die Infektion überleben (Influenza A/Texas/1/77; [2]) [%]	Mäuse die Infektion überleben (Influenza A/Texas/1/77; [3]) [%]	Schutzwirkung (Influenza A/Texas/1/77; [2])	outcome of infection (death of mice) (Influenza A/Texas/1/77; [3])	Schutzwirkung [1]
CCCCCCCCCCCCCCCC(=O)OC[C@H](COP(=O)(O)OCCNC(=O)[C@H](C)NC(=O)CC[C@@H](NC(=O)[C@H](C)NC(=O)[C@@H](C)O[C@H]1[C@H](O)[C@@H](CO)OC(O)[C@@H]1NC(C)=O)C(N)=O)OC(=O)CCCCCCCCCCCCCCC (stereo partly drawn) [Verbindung I, N-Acetyl-muramyl-L-alanyl-D-isoglutaminyl-L-alanin-2-(1,2-dipalmitoyl-sn-glycero-3-hydroxyphosphoryloxy)-äthylamid]	90	65			
CCCCOC(=O)[C@@H](CCC(N)=O)NC(=O)[C@H](C)NC(=O)[C@@H](C)O[C@H]1[C@H](O)[C@@H](CO)OC(O)[C@@H]1NC(C)=O (stereo partly drawn) [Verbindung II, N-Acetyl-muramyl-L-alanyl-D-glutamin-n-butylester]			keinerlei Schutzwirkung	sämtliche Mäuse an der Infektion mit Influenza A/Texas/1/77 sterben	Keinerlei Schutzwirkung
